{
  "source": "patent US5525626A",
  "about": "(priority 1989, dated 1996)",
  "key": {"[1]": {"assay": "tolerance study in patients with malignant tumors", "type": "in vivo, human", "text": "Over 8 consecutive weeks the patients were examined once a week for signs of systemic toxicity and organic dysfunctions."}, "PDFG-B gene": {"test_system": "PDFG-B gene", "assay": "transcription (mRNA level)", "type": "cell-based", "conditions": "Seliger et al., unpublished results; FIG. 8", "text": "(§1) In connection with the neoplastic transformation and increased proliferation rate of glioblastoma cells, two autocrinic loops, the EGF and the PDGF system, are discussed."}, "PDFG-A gene": {"test_system": "PDFG-A gene", "assay": "transcription (mRNA level)", "type": "cell-based", "conditions": "Seliger et al., unpublished results; FIG. 8", "text": "as §1"}, "DUKX cells": {"test_system": "DUKX cells", "assay": "growth inhibition of c-myc-expressing tumor cells", "type": "cell-based, Chinese hamsters", "text": "a) DUKX cells (ovarian carcinoma cells from Chinese hamsters) which over-express \"c-myc\" products, were cultivated according to standard conditions, two comparative groups being grown."}, "[2]": {"test_system": "PDGF receptors and EGF system", "assay": "expression of receptors / EGF system", "type": "cell-based", "conditions": "Seliger et al., unpublished results", "text": "as §1"}, "[3]": {"test_system": "U 178 MG, TP 410 N, TP 242 MG, TP 336 MG and A 431 cells", "assay": "growth curves of five tumor cell lines, comparison with coumarin", "type": "cell-based, human", "conditions": "corresponding concentrations, up to 12 days", "procedure": "(§2) The neuroblastoma cell line and the three glioblastoma cell lines were cultivated in Ham's F10 medium enriched with 10% fetal calf serum (FCS) and the usual quantity of penicillin, streptomycin (Pen/Strep) and glutamine. The epidermoidal cell line was cultivated in modified Eagle's Medium (MEM), likewise enriched with 10% (FCS) and the usual quantity of glutamine and Pen/Strep.\n(§3) In each case 5×10^4 cells were plated out in T25 bottles, the untreated cells being incubated in analogous conditions as control. The cell count was microscopically determined after 3, 5, 7, 10 and 12 days."}, "TP 410 N cells": {"test_system": "TP 410 N cells", "assay": "growth curve, neuroblastoma cells", "type": "cell-based, human", "conditions": "for Cell count: 25 μM/ml", "procedure": "as §2, §3"}, "g-CCM cells": {"test_system": "g-CCM cells", "assay": "growth inhibition of anaplastic astrocytoma cells (Table 1)", "type": "cell-based, human", "conditions": "200 μmol/ml, after 10 days"}, "[4]": {"test_system": "U 178 MG, TP 410 N, TP 242 MG, TP 336 MG and A 431 cells", "conditions": "37.5 μM/ml, 48 hours", "procedure": "as §2\nUntreated cells served as a control. Subsequently, the cells were incubated for 8 hours with ^3 H-thymidine. The radioactivity absorbed by the cells was measured in the usual way."}, "MCF 7 cells": {"test_system": "MCF 7 cells", "assay": "growth inhibition of breast cancer cells (Table 1, Example 2)", "type": "cell-based, human", "text": "The MCF 7 cell line from breast cancer was cultivated in DMEM-S 10, enriched with 10% FCS, for 10 days in the usual way."}, "g-UVW cells": {"test_system": "g-UVW cells", "assay": "antineoplastic effect on human anaplastic astrocytoma cells (Table 1, Example 3)", "type": "cell-based", "text": "The process as per Example 2 was repeated with the exception that cells of the 6-UVW line from human anaplastic astrocytoma were used and enriched in DMEM:HAM's F 12 medium (1:1) with L-glutamine and 10% FCS."}, "PC-3 cells": {"test_system": "PC-3 cells", "assay": "cell growth, combination with TNF", "type": "cell-based", "conditions": "7-OH-1,2-BP 500 μM/ml; TNF 1 nM/ml; combination 500 μM/1 nM; 4 days; 3×10^4 cells/well; control 18.58 + 1.05"}},
  "note": "Entries after “also recorded” stand apart in the source; their conditions may differ.",
  "data": [
    {"compound": "O=c1ccc2ccc(O)cc2o1", "note": "[7-OH-1,2-BP, 7-hydroxy-1,2-benzopyrone]", "values": [
      {"measurement": "side-effects", "setting": "[1]; 50 mg/day increased up to 2000 mg/day, 8 weeks, 60 patients", "result": "no side-effects at all had occurred"},
      {"measurement": "toxic side-effects", "setting": "[1]; long-term administration, 7000 mg/day", "result": "Toxic side-effects were not observed"},
      {"measurement": "transcription of gene coding for PDFG-B (mRNA level)", "setting": "PDFG-B gene", "result": "inhibited"},
      {"measurement": "transcription of gene coding for PDFG-A (mRNA level)", "setting": "PDFG-A gene", "result": "inhibited"},
      {"measurement": "inhibition of cell growth", "setting": "DUKX cells; 100 μg/ml, 24, 48 and 72 hours, FIG. 10", "result": "dramatic inhibition of cell growth; also recorded: inhibit the cell growth of tumor cells with oncogene-overexpression"},
      {"measurement": "cell growth after removal of substance", "setting": "DUKX cells; 24 hours, then 48 hours in 7-OH-1,2-BP-free medium, FIG. 11b1", "result": "considerable cell growth"},
      {"measurement": "inhibition of cell growth, second cultivation in presence of substance", "setting": "DUKX cells; 24 hours, trypsin, then 48 hours in 7-OH-1,2-BP-containing medium, FIG. 11b2", "result": "cell growth was virtually completely inhibited"},
      {"measurement": "expression of PDGF receptors and of the EGF system", "setting": "[2]", "result": "not influenced"},
      {"measurement": "growth-inhibiting activity (growth curve) versus control", "setting": "[3]", "result": "developed growth-inhibiting activity"},
      {"measurement": "Cell count", "setting": "TP 410 N cells; after 3 days, control 25", "result": "8 × 10^4"},
      {"measurement": "Cell count", "setting": "TP 410 N cells; after 5 days, control 45", "result": "20 × 10^4"},
      {"measurement": "Cell count", "setting": "TP 410 N cells; after 7 days, control 71", "result": "36 × 10^4"},
      {"measurement": "inhibition at 25 µM", "setting": "TP 410 N cells; Homo sapiens, Neuroblastoma cell, 288 h, 25 μM/ml (Table 2), read-out: % growth inhibition compared with control after 12 days", "result": 62, "unit": "%"},
      {"measurement": "% Growth inhibition compared with control", "setting": "g-CCM cells", "result": 44, "unit": "%"},
      {"measurement": "cytotoxic / cytostatic effect", "setting": "[4]", "result": "not cytotoxic for any of the cells, but cytostatic"},
      {"measurement": "% Growth inhibition compared with control", "setting": "MCF 7 cells; 200 μmol/ml, after 10 days", "result": 64, "unit": "%"},
      {"measurement": "cytostatic effect on breast cancer cells", "setting": "MCF 7 cells; Example 2, FIG. 1", "result": "clearly show the cytostatic effect"},
      {"measurement": "% Growth inhibition compared with control", "setting": "g-UVW cells; 200 μmol/ml, after 10 days", "result": 40, "unit": "%"},
      {"measurement": "cytostatic effect on human anaplastic astrocytoma cells", "setting": "g-UVW cells; Example 3, FIG. 2", "result": "has a cytostatic effect on human anaplastic astrocytoma cells"},
      {"measurement": "Cell growth", "setting": "PC-3 cells", "result": "11.51 + 0.63"}
    ]}
  ]
}
